Laboratory results as given in PubChem BioAssay AID1745844 (Carcinogenic Potency Database (CPDB), 2022).
Calls of active or inactive are those of the source. The rule behind the calls is not given here.

System: rodent lifetime carcinogenesis bioassay, tumor incidence TD50
Assay: chronic cancer bioassays in animals – CPDB, compiled studies (AID 1745844)

CCCCC(CC)COC(=O)CCCCC(=O)OCC(CC)CCCC (stereo not drawn)
TD50 (mouse, strain B6C3F1, females, in feed, site: liver, lesion: hepatocellular adenoma + hepatocellular carcinoma + neoplastic nodule, dosed 103 weeks, study length 105 weeks): 3840 mg/kg/day
TD50 (mouse, strain B6C3F1, females, in feed, site: liver, lesion: hepatocellular adenoma + hepatocellular carcinoma, dosed 103 weeks, study length 105 weeks): 3840 mg/kg/day
TD50 (mouse, strain B6C3F1, females, in feed, site: liver, lesion: hepatocellular carcinoma, dosed 103 weeks, study length 105 weeks): 3050 mg/kg/day
TD50 (mouse, strain B6C3F1, males, in feed, site: liver, lesion: hepatocellular adenoma + hepatocellular carcinoma + neoplastic nodule, dosed 103 weeks, study length 104 weeks): 5330 mg/kg/day
TD50 (mouse, strain B6C3F1, males, in feed, site: liver, lesion: hepatocellular adenoma + hepatocellular carcinoma, dosed 103 weeks, study length 104 weeks): 5330 mg/kg/day
TD50 (mouse, strain B6C3F1, males, in feed, site: liver, lesion: hepatocellular adenoma, dosed 103 weeks, study length 104 weeks): 9040 mg/kg/day
TD50 (mouse, strain B6C3F1, males, in feed, site: lung, lesion: alveolar/bronchiolar adenoma + alveolar/bronchiolar carcinoma, dosed 103 weeks, study length 104 weeks): 11700 mg/kg/day
carcinogen call (rat, strain Fischer 344, females, in feed, site: any site (literature study), lesion: several types, types named in the paper, dosed 103 weeks, study length 105 weeks): negative (inactive)
TD50 (rat, strain Fischer 344, females, in feed, site: liver, lesion: hepatocellular adenoma + hepatocellular carcinoma + neoplastic nodule, dosed 103 weeks, study length 105 weeks): 14500 mg/kg/day
carcinogen call (rat, strain Fischer 344, males, in feed, site: any site (literature study), lesion: several types, types named in the paper, dosed 103 weeks, study length 104 weeks): negative (inactive)

Cc1cccc(OCC(O)CNC(C)(C)C)c1C (stereo not drawn)
carcinogen call (mouse, strain B6C3F1, females, in feed, site: any site (literature study), lesion: several types, types named in the paper, dosed 82 weeks, study length 92 weeks): negative (inactive)
carcinogen call (mouse, strain B6C3F1, females, in feed, site: liver, lesion: several types, types named in the paper, dosed 82 weeks, study length 92 weeks): negative (inactive)
carcinogen call (mouse, strain B6C3F1, females, in feed, site: lung, lesion: several types, types named in the paper, dosed 82 weeks, study length 92 weeks): negative (inactive)
TD50 (mouse, strain B6C3F1, males, in feed, site: any site (literature study), lesion: several types, types named in the paper, dosed 82 weeks, study length 92 weeks): 618 mg/kg/day (inactive)
carcinogen call (mouse, strain B6C3F1, males, in feed, site: liver, lesion: several types, types named in the paper, dosed 82 weeks, study length 92 weeks): negative (inactive)
TD50 (mouse, strain B6C3F1, males, in feed, site: lung, lesion: several types, types named in the paper, dosed 82 weeks, study length 92 weeks): 1730 mg/kg/day (inactive)

O=NN1CCCC[C@H]1c1cccnc1
TD50 (rat, strain Chester Beatty albino, females, in drinking water, site: esophagus, lesion: benign tumor, dosed 73 weeks, study length 73 weeks): 17.7 mg/kg/day
TD50 (rat, strain Chester Beatty albino, females, in drinking water, site: esophagus, lesion: several types, types named in the paper, dosed 73 weeks, study length 73 weeks): 12.9 mg/kg/day
TD50 (rat, strain Chester Beatty albino, females, in drinking water, site: esophagus, lesion: squamous-cell carcinoma, dosed 73 weeks, study length 73 weeks): 413 mg/kg/day
TD50 (rat, strain Chester Beatty albino, males, in drinking water, site: esophagus, lesion: benign tumor, dosed 73 weeks, study length 73 weeks): 28.1 mg/kg/day
TD50 (rat, strain Chester Beatty albino, males, in drinking water, site: esophagus, lesion: several types, types named in the paper, dosed 73 weeks, study length 73 weeks): 11 mg/kg/day
TD50 (rat, strain Chester Beatty albino, males, in drinking water, site: esophagus, lesion: squamous-cell carcinoma, dosed 73 weeks, study length 73 weeks): 86 mg/kg/day

CC(=O)[O-].CC(=O)[O-].CC(=O)[O-].[Cr+3]
carcinogen call (mouse, strain Charles River CD1, females, in drinking water, site: any site (literature study), lesion: one or several types, types not named, dosed 145 weeks, study length 145 weeks): negative (inactive)
carcinogen call (mouse, strain Charles River CD1, females, in drinking water, site: lung, lesion: one or several types, types not named, dosed 145 weeks, study length 145 weeks): negative (inactive)
carcinogen call (mouse, strain Charles River CD1, males, in drinking water, site: any site (literature study), lesion: one or several types, types not named, dosed 139 weeks, study length 139 weeks): negative (inactive)
carcinogen call (mouse, strain Charles River CD1, males, in drinking water, site: lung, lesion: one or several types, types not named, dosed 139 weeks, study length 139 weeks): negative (inactive)
TD50 (rat, strain Long-Evans BLU:(LE), both sexes, in drinking water, site: any site (literature study), lesion: malignant tumor, dosed 182 weeks, study length 182 weeks): 7.62 mg/kg/day (inactive)
TD50 (rat, strain Long-Evans BLU:(LE), both sexes, in drinking water, site: any site (literature study), lesion: one or several types, types not named, dosed 182 weeks, study length 182 weeks): 1.61 mg/kg/day (inactive)
carcinogen call (rat, strain Long-Evans BLU:(LE), both sexes, in drinking water, site: liver, lesion: one or several types, types not named, dosed 182 weeks, study length 182 weeks): negative (inactive)

NNc1nc(-c2ccccc2)cs1
TD50 (rat, strain Sprague-Dawley, females, in feed, site: any site (literature study), lesion: several types, types named in the paper, dosed 46 weeks, study length 66 weeks): 311 mg/kg/day (inactive)

CC(C)C[C@H]1C(=O)N2CCC[C@H]2[C@]2(O)O[C@](NC(=O)[C@@H]3C=C4c5cccc6[nH]c(Br)c(c56)C[C@H]4N(C)C3)(C(C)C)C(=O)N12
TD50 (mouse, strain OF1, females, in feed, site: any site (literature study), lesion: several types, types named in the paper, dosed 74 weeks, study length 74 weeks): 175 mg/kg/day (inactive)
carcinogen call (mouse, strain OF1, females, in feed, site: liver, lesion: neoplastic nodule, dosed 74 weeks, study length 74 weeks): negative (inactive)
carcinogen call (mouse, strain OF1, females, in feed, site: lung, lesion: adenoma, dosed 74 weeks, study length 74 weeks): negative (inactive)
TD50 (mouse, strain OF1, males, in feed, site: any site (literature study), lesion: several types, types named in the paper, dosed 74 weeks, study length 74 weeks): 68 mg/kg/day (inactive)
TD50 (mouse, strain OF1, males, in feed, site: liver, lesion: neoplastic nodule, dosed 74 weeks, study length 74 weeks): 308 mg/kg/day (inactive)
TD50 (mouse, strain OF1, males, in feed, site: lung, lesion: adenoma, dosed 74 weeks, study length 74 weeks): 618 mg/kg/day (inactive)
TD50 (rat, strain OFA (Sprague-Dawley derived), females, in feed, site: uterus, lesion: malignant tumor, dosed 100 weeks, study length 100 weeks): 117 mg/kg/day
TD50 (rat, strain OFA (Sprague-Dawley derived), females, in feed, site: uterus, lesion: several types, types named in the paper, dosed 100 weeks, study length 100 weeks): 33.7 mg/kg/day
